According to publication PMC12446476 (Nature Communications, 2025):
In brackets after ≈: the same amount, converted by molar mass. Like-named read-outs stand apart in the source and are kept apart here.

Test system: N. gonorrhoeae
Assay: MIC determination, Etest
Format: cell-based, Neisseria gonorrhoeae
Details: for MIC: Neisseria gonorrhoeae, comparator antibiotics, read-out: Minimum inhibitory concentration
Source text: The 2024 WHO N. gonorrhoeae reference strains were used for quality control. Only whole MIC doubling dilutions are reported. Clinical breakpoints or the epidemiological cutoff (ECOFF, to indicate azithromycin resistance) from EUCAST (v14.0, https://www.eucast.org/clinical_breakpoints) were used to classify isolates as antimicrobial susceptible or resistant. […] Two times the standard inoculum defined by CLSI was used to establish consistent growth in untreated control samples for some strains. In vitro time-kill assays were performed according to CLSI guidelines[65] using Columbia Broth (BD Difco) supplemented with 1% IsoVitaleX Enrichment (BD). Viable bacterial counts were generated by plating 10-fold serially diluted samples on GC agar plates containing 1% IsoVitaleX Enrichment (BD).

CC[C@H]1OC(=O)[C@H](C)[C@@H](O[C@H]2C[C@@](C)(OC)[C@@H](O)[C@H](C)O2)[C@H](C)[C@@H](O[C@@H]2O[C@H](C)C[C@H](N(C)C)[C@H]2O)[C@](C)(O)C[C@@H](C)CN(C)[C@H](C)[C@@H](O)[C@]1(C)O [Azithromycin]
MIC (clinical N. gonorrhoeae isolate 50, Sweden 2023): 0.25 µg/mL (≈ 0.334 µM) | MIC (clinical N. gonorrhoeae isolate 51, Sweden 2023): 0.064 µg/mL (≈ 0.0854 µM) | MIC (clinical N. gonorrhoeae isolate 52, Sweden 2023): 0.25 µg/mL (≈ 0.334 µM) | MIC (clinical N. gonorrhoeae isolate 53, Sweden 2023): 0.125 µg/mL (≈ 0.167 µM) | MIC (clinical N. gonorrhoeae isolate 54, Sweden 2023): 0.5 µg/mL (≈ 0.668 µM) | MIC (clinical N. gonorrhoeae isolate 55, Sweden 2023): 0.5 µg/mL (≈ 0.668 µM) | MIC (clinical N. gonorrhoeae isolate 56, Sweden 2023): 0.25 µg/mL (≈ 0.334 µM) | MIC (clinical N. gonorrhoeae isolate 57, Sweden 2023): 0.064 µg/mL (≈ 0.0854 µM) | MIC (clinical N. gonorrhoeae isolate 58, Sweden 2023): 0.125 µg/mL (≈ 0.167 µM) | MIC (clinical N. gonorrhoeae isolate 59, Sweden 2023): 0.064 µg/mL (≈ 0.0854 µM) | MIC (clinical N. gonorrhoeae isolate 60, Sweden 2023): 0.5 µg/mL (≈ 0.668 µM) | MIC (clinical N. gonorrhoeae isolate 61, Sweden 2023): 0.125 µg/mL (≈ 0.167 µM) | MIC (clinical N. gonorrhoeae isolate 62, Sweden 2023): 0.016 µg/mL (≈ 0.0214 µM) | MIC (clinical N. gonorrhoeae isolate 63, Sweden 2023): 0.25 µg/mL (≈ 0.334 µM) | MIC (clinical N. gonorrhoeae isolate 64, Sweden 2023): 0.5 µg/mL (≈ 0.668 µM) | MIC (clinical N. gonorrhoeae isolate 65, Sweden 2023): 0.064 µg/mL (≈ 0.0854 µM) | MIC (clinical N. gonorrhoeae isolate 66, Sweden 2023): 0.25 µg/mL (≈ 0.334 µM) | MIC (clinical N. gonorrhoeae isolate 67, Sweden 2023): 0.25 µg/mL (≈ 0.334 µM) | MIC (clinical N. gonorrhoeae isolate 68, Sweden 2023): 0.064 µg/mL (≈ 0.0854 µM) | MIC (clinical N. gonorrhoeae isolate 69, Sweden 2023): 0.25 µg/mL (≈ 0.334 µM) | MIC (clinical N. gonorrhoeae isolate 70, Sweden 2023): 0.125 µg/mL (≈ 0.167 µM) | MIC (clinical N. gonorrhoeae isolate 71, Sweden 2023): 2 µg/mL (≈ 2.67 µM) | MIC (clinical N. gonorrhoeae isolate 72, Sweden 2023): 0.125 µg/mL (≈ 0.167 µM) | MIC (clinical N. gonorrhoeae isolate 73, Sweden 2023): 0.064 µg/mL (≈ 0.0854 µM) | MIC (clinical N. gonorrhoeae isolate 74, Sweden 2023): 0.5 µg/mL (≈ 0.668 µM) | MIC (clinical N. gonorrhoeae isolate 75, Sweden 2023): 0.5 µg/mL (≈ 0.668 µM) | MIC (clinical N. gonorrhoeae isolate 76, Sweden 2023): 0.125 µg/mL (≈ 0.167 µM) | MIC (clinical N. gonorrhoeae isolate 77, Sweden 2023): 0.064 µg/mL (≈ 0.0854 µM) | MIC (clinical N. gonorrhoeae isolate 78, Sweden 2023): 0.25 µg/mL (≈ 0.334 µM) | MIC (clinical N. gonorrhoeae isolate 79, Sweden 2023): 0.064 µg/mL (≈ 0.0854 µM) | MIC (clinical N. gonorrhoeae isolate 80, Sweden 2023): 0.125 µg/mL (≈ 0.167 µM) | MIC (clinical N. gonorrhoeae isolate 81, Sweden 2023): 0.25 µg/mL (≈ 0.334 µM) | MIC (clinical N. gonorrhoeae isolate 82, Sweden 2023): 2 µg/mL (≈ 2.67 µM) | MIC (clinical N. gonorrhoeae isolate 83, Sweden 2023): 0.032 µg/mL (≈ 0.0427 µM) | MIC (clinical N. gonorrhoeae isolate 84, Sweden 2023): 0.5 µg/mL (≈ 0.668 µM) | MIC (clinical N. gonorrhoeae isolate 85, Sweden 2023): 0.125 µg/mL (≈ 0.167 µM) | MIC (clinical N. gonorrhoeae isolate 86, Sweden 2023): 0.125 µg/mL (≈ 0.167 µM) | MIC (clinical N. gonorrhoeae isolate 87, Sweden 2023): 0.125 µg/mL (≈ 0.167 µM) | MIC (clinical N. gonorrhoeae isolate 88, Sweden 2023): 0.5 µg/mL (≈ 0.668 µM) | MIC (clinical N. gonorrhoeae isolate 89, Sweden 2023): 0.25 µg/mL (≈ 0.334 µM) | MIC (clinical N. gonorrhoeae isolate 90, Sweden 2023): 0.125 µg/mL (≈ 0.167 µM) | MIC (clinical N. gonorrhoeae isolate 91, Sweden 2023): 0.032 µg/mL (≈ 0.0427 µM) | MIC (clinical N. gonorrhoeae isolate 92, Sweden 2023): 0.5 µg/mL (≈ 0.668 µM) | MIC (clinical N. gonorrhoeae isolate 93, Sweden 2023): 0.032 µg/mL (≈ 0.0427 µM) | MIC (clinical N. gonorrhoeae isolate 94, Sweden 2023): 0.032 µg/mL (≈ 0.0427 µM) | MIC (clinical N. gonorrhoeae isolate 95, Sweden 2023): 0.5 µg/mL (≈ 0.668 µM) | MIC (clinical N. gonorrhoeae isolate 96, Sweden 2023): 0.25 µg/mL (≈ 0.334 µM) | MIC (clinical N. gonorrhoeae isolate 97, Sweden 2023): 0.25 µg/mL (≈ 0.334 µM) | MIC (clinical N. gonorrhoeae isolate 98, Sweden 2023): 0.064 µg/mL (≈ 0.0854 µM) | MIC (clinical N. gonorrhoeae isolate 99, Sweden 2023): 0.064 µg/mL (≈ 0.0854 µM) | MIC (clinical N. gonorrhoeae isolate 100, Sweden 2023): 0.064 µg/mL (≈ 0.0854 µM) | AMR phenotype (susceptibility category, EUCAST) (WHO F): S | AMR phenotype (susceptibility category, EUCAST) (WHO H): S | AMR phenotype (susceptibility category, EUCAST) (WHO K): S | AMR phenotype (susceptibility category, EUCAST) (WHO L): S | AMR phenotype (susceptibility category, EUCAST) (WHO M): S | AMR phenotype (susceptibility category, EUCAST) (WHO O): S | AMR phenotype (susceptibility category, EUCAST) (WHO P): R | AMR phenotype (susceptibility category, EUCAST) (WHO Q): R | AMR phenotype (susceptibility category, EUCAST) (WHO R): S | AMR phenotype (susceptibility category, EUCAST) (WHO S2): R | AMR phenotype (susceptibility category, EUCAST) (WHO U): R | AMR phenotype (susceptibility category, EUCAST) (WHO V): R | AMR phenotype (susceptibility category, EUCAST) (WHO X): S | AMR phenotype (susceptibility category, EUCAST) (WHO Y): S | AMR phenotype (susceptibility category, EUCAST) (WHO Z): S
